Legend:
[1] = test system: chick dorsal root ganglia; test: Neurite outgrowth in chick dorsal root ganglion cultures; format: cell-based; conditions: for EC50: Gallus gallus, chick DRG explants, 48 h after drug treatment, read-out: ED50, Neurite Outgrowth in DRG cultures
Description: In the present work explants of chick dorsal root ganglia have been used, which are easier to employ in studies of nerve outgrowth.
Chick Dorsal Root Ganglion Cultures and Neurite Outgrowth
Dorsal root ganglia were dissected from chick embryos of ten day gestation. Whole ganglion explants were cultured on thin layer Matrigel-coated 12 well plates with Liebovitz L15 plus high glucose media supplemented with 2 mM glutamine and 10% fetal calf serum, and also containing 10 μM cytosine β-D arabinofuranoside (Ara C) at 37° C. in an environment containing 5% CO2. Twenty-four hours later, the DRGs were treated with various concentrations of nerve growth factor, immunophilin ligands or combinations of NFG plus drugs. Forty-eight hours after drug treatment, the ganglia were visualized under phase contrast or Hoffman Modulation contrast with a Zeiss Axiovert inverted microscope. Photomicrographs of the explants were made, and neurite outgrowth was quantitated. Neurites longer than the DRG diameter were counted as positive, with total number of neurites quantitated per each experimental condition. Three to four DRGs are cultured per well, and each treatment was performed in duplicate. Data from 6-10 different concentrations were used to generate dose-response curves, from which ED50 values were calculated.

[2] = test system: sciatic nerve lesions; conditions: whole animal experiments; cited from earlier work
[3] = test system: rat dorsal root ganglia; conditions: rat DRG explants, cited from earlier work
[4] = test system: facial nerve injury; conditions: whole animal experiments; cited from earlier work
[5] = test system: dorsal root ganglion cells (DRGs); conditions: picomolar concentrations; sensory neurons; cited from earlier work
[6] = test system: growth-associated protein-43 (GAP43); conditions: cited from earlier work
[7] = test system: PC12 cells; conditions: picomolar concentrations; cited from earlier work

Compound	EC50 [1] [nM]	further results
O=C(C(=O)N1CCCC[C@H]1C(=O)OC(CCCc1ccccc1)CCCc1cccnc1)c1ccccc1 (stereo partly shown) [Compound 17]	1 to 5	–
O=C(C(=O)N1CCCC[C@H]1C(=O)OC(CCCc1ccccc1)CCCc1ccccn1)c1ccccc1 (stereo partly shown) [Compound 18]	0.063	–
COc1ccc(CCC(CCCc2ccccc2)OC(=O)[C@@H]2CCCCN2C(=O)C(=O)c2ccccc2)cc1 (stereo partly shown) [Compound 19]	10 to 20	–
O=C(C(=O)N1CCCC[C@H]1C(=O)OC(CCCc1ccccc1)CCCc1ccccc1)c1ccccc1 [Compound 20]	0.0044	–
COc1cc(C(=O)C(=O)N2CCCC[C@H]2C(=O)OC(CCCc2ccccc2)CCCc2ccccc2)cc(OC)c1OC [Compound 21]	0.61	dose-dependence of neurotrophic effects in neuronal cultures ([1]; FIG. 3, cultured sensory neurons): dose-dependent neurotrophic effects
COc1cc(C(=O)C(=O)N2CCCC[C@H]2C(=O)OC(CCCc2ccccc2)CCc2cccnc2)cc(OC)c1OC (stereo partly shown) [Compound 22]	0.95	neurite outgrowth in cultured sensory neurons (photomicrograph) ([1]; 1 nM): responding to trophic effects
COc1cc(C(=O)C(=O)N2CCCC[C@H]2C(=O)OC(CCCc2ccccc2)CCCc2ccccn2)cc(OC)c1OC (stereo partly shown) [Compound 23]	25	–
COc1ccc(CCCC(CCCc2ccccc2)OC(=O)[C@@H]2CCCCN2C(=O)C(=O)c2cc(OC)c(OC)c(OC)c2)cc1 (stereo partly shown) [Compound 24]	0.5	–
CC(C)Oc1cccc(C(=O)C(=O)N2CCCC[C@H]2C(=O)OC(CCCc2ccccc2)CCCc2cccnc2)c1 (stereo partly shown) [Compound 25]	0.3	–
O=C(C(=O)N1CCCC[C@H]1C(=O)OCc1ccccc1)c1ccccc1 [Example 1]	25 to 100	–
O=C(C(=O)N1CCCC[C@H]1C(=O)OCCCc1ccccc1)c1ccccc1 [Example 2]	10 to 20	–
COc1ccc(CCCCOC(=O)[C@@H]2CCCCN2C(=O)C(=O)c2ccccc2)cc1 [Example 3]	0.5	–
O=C(C(=O)N1CCCC[C@H]1C(=O)OCCCCc1ccccc1)c1ccccc1 [Example 4]	25 to 100	–
O=C(C(=O)N1CCCC[C@H]1C(=O)OCCc1ccccc1)c1ccccc1 [Example 5]	25 to 100	–
O=C(C(=O)N1CCCC[C@H]1C(=O)OCCCCC1CCCCC1)c1ccccc1 [Example 6]	10 to 20	–
COC(=O)C(=O)N1CCCC[C@H]1C(=O)OCc1ccccc1 [Example 7]	> 10000	–
COC(=O)C(=O)N1CCCC[C@H]1C(=O)OCCCCC1CCCCC1 [Example 8]	> 10000	–
COC(=O)C(=O)N1CCCC[C@H]1C(=O)OCCCC1CCCCC1 [Example 9]	> 10000	–
COC(=O)C(=O)N1CCCC[C@H]1C(=O)OCCCC1CCCC1 [Example 10]	> 10000	–
O=C(C(=O)N1CCCC[C@H]1C(=O)OCc1ccccc1)c1ccco1 [Example 11]	1000	–
COc1cc(C(=O)C(=O)N2CCCC[C@H]2C(=O)OCCCCC2CCCCC2)cc(OC)c1OC [Example 12]	0.031	–
COc1cc(C(=O)C(=O)N2CCCC[C@H]2C(=O)OCc2cccc(Oc3ccccc3)c2)cc(OC)c1OC [Example 13]	0.18	–
COc1cc(C(=O)C(=O)N2CCCC[C@H]2C(=O)OCCCCc2ccccc2)cc(OC)c1OC [Example 14]	1 to 5	–
COc1cc(C(=O)C(=O)N2CCCC[C@H]2C(=O)OCCCc2c[nH]c3ccccc23)cc(OC)c1OC [Example 15]	0.055	neurite outgrowth in cultured sensory neurons (photomicrograph) ([1]; 300 pM): stimulation of neurite outgrowth
COc1ccc(CCCCOC(=O)[C@@H]2CCCCN2C(=O)C(=O)c2cc(OC)c(OC)c(OC)c2)cc1 [Example 16]	0.03	–
C=CC[C@@H]1/C=C(\C)C[C@H](C)C[C@H](OC)[C@H]2O[C@@](O)(C(=O)C(=O)N3CCCC[C@H]3C(=O)O[C@H](/C(C)=C/[C@@H]3CC[C@@H](O)[C@H](OC)C3)[C@H](C)[C@@H](O)CC1=O)[C@H](C)C[C@@H]2OC [FK506]	–	functional recovery in animals with sciatic nerve lesions [2]: functional recovery in animals with sciatic nerve lesions; neurotrophic effects in the absence of NGF ([3]; no NGF): neurotrophic effects were observed; lowest concentration with significant augmentation in nerve outgrowth [3]: 1 picomolar; nerve regeneration following facial nerve injury [4]: stimulate nerve regeneration following facial nerve injury; stimulation of neurite outgrowth [5]: stimulate neurite out growth in PC12 cells and sensory neurons; phosphorylation of GAP43 [6]: augments the phosphorylation; stimulation of neurite outgrowth [7]: stimulate neurite out growth in PC12 cells
CO[C@H]1C[C@@H]2CC[C@@H](C)[C@@](O)(O2)C(=O)C(=O)N2CCCC[C@H]2C(=O)O[C@H]([C@H](C)C[C@@H]2CC[C@@H](O)[C@H](OC)C2)CC(=O)[C@H](C)/C=C(\C)[C@@H](O)[C@@H](OC)C(=O)[C@H](C)C[C@H](C)/C=C/C=C/C=C/1C [rapamycin]	–	stimulation of neurite outgrowth [5]: stimulate neurite out growth in PC12 cells and sensory neurons; stimulation of neurite outgrowth [7]: stimulate neurite out growth in PC12 cells

Source: patent US5801197A, “Rotamase enzyme activity inhibitors” (GPI Nil Holdings, Inc., priority 1996, dated 1998)
